Measured values reported in US7105229B2, “Coated particles, methods of making and using” (priority 1997, dated 2006).

Assay: Solubilization of Paclitaxel in nanostructured phase interior
Format: physicochemical
Description: A nanostructured liquid phase containing the antineoplastic drug Paclitaxel was prepared by solubilizing 0.045 grams of Paclitaxel, 0.57 grams of eugenol, […] of soy lecithin (Epikuron 200), 0.33 grams of glycerol, and 0.06 grams of cupric nitrate with 0.61 grams of methanol, and then evaporating off the methanol in an evaporating dish, with stirring during evaporation. An glycerol-rich upper solution was prepared by dissolving 0.09 grams of potassium iodide, 0.05 grams of Pluronic F-68, 0.44 grams of water and 1.96 grams of glycerol. After overlaying the upper phase, the system was sonicated, resulting in the dispersing of Paclitaxel-containing, nanostructured liquid phase into microparticles coated with crystalline iodine. […] The loading of Paclitaxel in the particle interior was quite high, namely on the order of 3 wt %, which in this case was so high that precipitation of some of the Paclitaxel within the interior of each particle may occur since the solubilization of Paclitaxel in this cubic phase at this high loading was metastable. […]

CC(=O)O[C@H]1C(=O)[C@@]2(C)[C@H]([C@H](OC(=O)c3ccccc3)[C@]3(O)C[C@H](OC(=O)[C@H](O)[C@@H](NC(=O)c4ccccc4)c4ccccc4)C(C)=C1C3(C)C)[C@]1(OC(C)=O)CO[C@@H]1C[C@@H]2O [Paclitaxel]
concentration of Paclitaxel in the interior at which solubilization is truly stable (thermodynamic equilibrium) (eugenol/soy lecithin/glycerol nanostructured phase of Example 36): ≤ 0.7% | time taken for precipitation of Paclitaxel at metastable loading (loading on the order of 3 wt % of interior): hours or even days
